In patent US20190047966A1, “NOVEL COMPOUND AND PHARMACOLOGICALLY ACCEPTABLE SALT THEREOF” (MEIJI SEIKA PHARMA CO., LTD., priority 2016, published 2019):

Key:
[1] = biological target: T1, human histamine H4 receptor (Homo sapiens, UniProt Q9H3N8); experiment: Evaluation of Human H4 Receptor Affinity ([3H]histamine binding); conditions: inhibition constant Ki, CHO-K1 membrane preparation, read-out: Evaluation of H4 Receptor Affinity
T1 construct: purchased PerkinElmer Inc; host or cells: CHO-K1
Method: Test Example 2: Evaluation of Human H4 Receptor Affinity
Membrane preparation from recombinant CHO-K1 cell expressing the human histamine H4 receptor (PerkinElmer Inc.), radiolabeled ligand 8.2 nM [^3H]histamine (PerkinElmer Inc.), and compounds dissolved in DMSO were reacted at 25° C. for 90 minutes in a buffering solution containing 50 mM tris-hydrochloric acid, pH 7.4, and 1.25 mM EDTA on a 96 well plate, followed by filtration using a GF/B filter (PerkinElmer Inc.) pretreated with 0.3% polyethylenimine. The residue was washed four times with a buffering solution of 50 mM tris-hydrochloric acid, pH 7.4. Thereafter, a scintillation cocktail (MicroScint 20: PerkinElmer Inc.) was added to the GF/B filter, and the radioactivity of each well was measured using a liquid scintillation counter for 96-well (TopCount: PerkinElmer Inc.). The non-specific binding was evaluated in the presence of 1.0 μM histamine. The inhibition constant Ki was calculated from the 50% inhibitory concentration (IC50 value) obtained in each test and the Kd value (5.7 nM) unique to this assay system, according to the Cheng-Prusoff equation.

[2] = biological target: human histamine H1 receptor (Homo sapiens, UniProt P35367); experiment: Evaluation of Human H1 Receptor Affinity ([3H]pyrilamine binding); parameters: purchased PerkinElmer Inc; host or cells: CHO-K1; conditions: inhibition constant Ki, CHO-K1 membrane preparation
Chain of human histamine H1 receptor (P35367 whole entry): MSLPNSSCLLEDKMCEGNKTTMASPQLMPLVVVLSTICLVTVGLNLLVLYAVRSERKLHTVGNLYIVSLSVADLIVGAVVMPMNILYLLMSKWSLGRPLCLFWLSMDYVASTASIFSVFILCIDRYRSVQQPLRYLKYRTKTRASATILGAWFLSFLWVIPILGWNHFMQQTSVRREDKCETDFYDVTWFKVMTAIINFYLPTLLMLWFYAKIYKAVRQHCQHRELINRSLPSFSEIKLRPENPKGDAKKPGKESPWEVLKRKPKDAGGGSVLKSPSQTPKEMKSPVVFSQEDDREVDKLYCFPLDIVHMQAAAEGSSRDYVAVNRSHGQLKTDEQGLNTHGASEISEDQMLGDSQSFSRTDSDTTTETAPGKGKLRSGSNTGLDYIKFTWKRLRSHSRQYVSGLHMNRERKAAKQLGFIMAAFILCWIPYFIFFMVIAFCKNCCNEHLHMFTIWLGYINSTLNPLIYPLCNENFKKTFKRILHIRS
Method: Test Example 1: Evaluation of Human H1 Receptor Affinity
Membrane preparation from recombinant CHO-K1 cell expressing the human histamine H1 receptor (PerkinElmer Inc.), radiolabeled ligand 1.2 nM [^3H]pyrilamine (PerkinElmer Inc.), and test compounds dissolved in DMSO were reacted at 25° C. for 3 hours in a buffering solution containing 50 mM tris-hydrochloric acid, pH 7.4, and 5 mM magnesium chloride on a 96 well plate, followed by filtration using a GF/B filter (PerkinElmer Inc.) pretreated with 0.3% polyethylenimine. The residue was washed four times with a buffering solution of 50 mM tris-hydrochloric acid, pH 7.4. Thereafter, a scintillation cocktail (MicroScint 20: PerkinElmer Inc.) was added to the GF/B filter, and the radioactivity of each well was measured using a liquid scintillation counter for 96-well (TopCount: PerkinElmer Inc.). The non-specific binding was evaluated in the presence of 1.0 μM pyrilamine. The inhibition constant Ki was calculated from the 50% inhibitory concentration (IC50 value) obtained in each test and the Kd value (1.1 nM) unique to this assay system, according to the Cheng-Prusoff equation.

SMILES	Ki [1]	Ki [2]
Nc1nc2c(c(N3CCN(CCO[C@H]4C[C@H](C(=O)O)C4)CC3)n1)CCc1cc(OCc3ccc(OC(F)(F)F)cc3)ccc1-2 [Example 30, trans-3-(2-(4-(2-amino-8-((4-(trifluoromethoxy)benzyl)oxy)-5,6-dihydrobenzo[h]quinazolin-4-yl)piperazin-1-yl)ethoxy)cyclobutane-1-carboxylic acid]	< 100 nM	< 100 nM
CC1(C(=O)O)CC(OCCN2CCN(c3nc(N)nc4c3CCc3cc(OCc5ccc(OC(F)(F)F)cc5)ccc3-4)CC2)C1 (stereo not drawn) [Example 31, cis-3-(2-(4-(2-amino-8-((4-(trifluoromethoxy)benzyl)oxy)-5,6-dihydrobenzo[h]quinazolin-4-yl)piperazin-1-yl)ethoxy)-1-methylcyclobutane-1-carboxylic acid]	100 to 500 nM	< 100 nM
Nc1nc2c(c(N3CCN(CCO[C@H]4C[C@@H](C(N)=O)C4)CC3)n1)CCc1cc(OCc3ccc(OC(F)(F)F)cc3)ccc1-2 [Example 33, cis 3-(2-(4-(2-amino-8-((4-(trifluoromethoxy)benzyl)oxy)-5,6-dihydrobenzo[h]quinazolin-4-yl)piperazin-1-yl)ethoxy)cyclobutane-1-carboxamide]	< 100 nM	< 100 nM
Nc1nc2c(c(N3CCN(CCO[C@H]4C[C@H](C(N)=O)C4)CC3)n1)CCc1cc(OCc3ccc(OC(F)(F)F)cc3)ccc1-2 [Example 34, trans-3-(2-(4-(2-amino-8-((4-(trifluoromethoxy)benzyl)oxy)-5,6-dihydrobenzo[h]quinazolin-4-yl)piperazin-1-yl)ethoxy)cyclobutane-1-carboxamide]	< 100 nM	< 100 nM
CN1CCN(c2nc(N)nc3c2CCc2cc(NS(=O)(=O)CCCOc4ccccc4)ccc2-3)CC1 [Example 40, N-(2-amino-4-(4-methylpiperazin-1-yl)-5,6-dihydrobenzo[h]quinazolin-8-yl)-3-phenoxypropane-1-sulfonamide]	< 100 nM	< 100 nM
CN1CCN(c2nc(N)nc3c2CCc2cc(NS(=O)(=O)c4ccccc4)ccc2-3)CC1 [Example 41, N-(2-amino-4-(4-methylpiperazin-1-yl)-5,6-dihydrobenzo[h]quinazolin-8-yl)benzenesulfonamide]	100 to 500 nM	100 to 500 nM
CN1CCN(c2nc(N)nc3c2CCc2cc(NS(=O)(=O)c4cccc(Cl)c4)ccc2-3)CC1 [Example 43, N-(2-amino-4-(4-methylpiperazin-1-yl)-5,6-dihydrobenzo[h]quinazolin-8-yl)-3-chlorobenzenesulfonamide]	100 to 500 nM	100 to 500 nM
CN1CCN(c2nc(N)nc3c2CCc2cc(NS(=O)(=O)c4ccc(Cl)s4)ccc2-3)CC1 [Example 44, N-(2-amino-4-(4-methylpiperazin-1-yl)-5,6-dihydrobenzo[h]quinazolin-8-yl)-5-chlorothiophene-2-sulfonamide]	100 to 500 nM	100 to 500 nM
CN1CCN(c2nc(N)nc3c2CCc2cc(NS(=O)(=O)c4ccc(Cl)c(F)c4)ccc2-3)CC1 [Example 45, N-(2-amino-4-(4-methylpiperazin-1-yl)-5,6-dihydrobenzo[h]quinazolin-8-yl)-4-chloro-3-fluorobenzenesulfonamide]	100 to 500 nM	< 100 nM
CN1CCN(c2nc(N)nc3c2CCc2cc(NS(=O)(=O)c4ccc(Cl)cc4F)ccc2-3)CC1 [Example 46, N-(2-amino-4-(4-methylpiperazin-1-yl)-5,6-dihydrobenzo[h]quinazolin-8-yl)-4-chloro-2-fluorobenzenesulfonamide]	100 to 500 nM	< 100 nM
CN1CCN(c2nc(N)nc3c2CCc2cc(NS(=O)(=O)c4ccc(C#N)cc4)ccc2-3)CC1 [Example 47, N-(2-amino-4-(4-methylpiperazin-1-yl)-5,6-dihydrobenzo[h]quinazolin-8-yl)-4-cyanobenzenesulfonamide]	100 to 500 nM	100 to 500 nM

The remaining lines, values ahead:

Ki [1]	Ki [2]	SMILES
100 to 500 nM	100 to 500 nM	CN1CCN(c2nc(N)nc3c2CCc2cc(NS(=O)(=O)Cc4ccccc4)ccc2-3)CC1 [Example 48, N-(2-amino-4-(4-methylpiperazin-1-yl)-5,6-dihydrobenzo[h]quinazolin-8-yl)-1-phenylmethanesulfonamide]
100 to 500 nM	100 to 500 nM	CN1CCN(c2nc(N)nc3c2CCc2cc(NS(=O)(=O)c4ccc(Cl)nc4)ccc2-3)CC1 [Example 49, N-(2-amino-4-(4-methylpiperazin-1-yl)-5,6-dihydrobenzo[h]quinazolin-8-yl)-6-chloropyridine-3-sulfonamide]
< 100 nM	< 100 nM	CN1CCN(c2nc(N)nc3c2CCc2cc(NS(=O)(=O)c4ccc(F)cc4)ccc2-3)CC1 [Example 50, N-(2-amino-4-(4-methylpiperazin-1-yl)-5,6-dihydrobenzo[h]quinazolin-8-yl)-4-fluorobenzenesulfonamide]
< 100 nM	< 100 nM	CN1CCN(c2nc(N)nc3c2CCc2cc(NS(=O)(=O)CCc4ccccc4)ccc2-3)CC1 [Example 51, N-(2-amino-4-(4-methylpiperazin-1-yl)-5,6-dihydrobenzo[h]quinazolin-8-yl)-6-phenylethane-1-sulfonamide]
< 100 nM	< 100 nM	CN1CCN(c2nc(N)nc3c2CCc2cc(NS(=O)(=O)CCCc4ccccc4)ccc2-3)CC1 [Example 52, N-(2-amino-4-(4-methylpiperazin-1-yl)-5,6-dihydrobenzo[h]quinazolin-8-yl)-3-phenylpropane-1-sulfonamide]
100 to 500 nM	< 100 nM	COc1ccc(S(=O)(=O)Nc2ccc3c(c2)CCc2c-3nc(N)nc2N2CCN(C)CC2)cc1 [Example 53, N-(2-amino-4-(4-methylpiperazin-1-yl)-5,6-dihydrobenzo[h]quinazolin-8-yl)-4-methoxybenzenesulfonamide]
100 to 500 nM	100 to 500 nM	COC(=O)c1ccc(S(=O)(=O)Nc2ccc3c(c2)CCc2c-3nc(N)nc2N2CCN(C)CC2)cc1 [Example 55, methyl 4-(N-(2-amino-4-(4-methylpiperazin-1-yl)-5,6-dihydrobenzo[h]quinazolin-8-yl)sulfamoyl)benzoate]
100 to 500 nM	100 to 500 nM	CN1CCN(c2nc(N)nc3c2CCc2cc(NS(=O)(=O)C4CCCCC4)ccc2-3)CC1 [Example 56, N-(2-amino-4-(4-methylpiperazin-1-yl)-5,6-dihydrobenzo[h]quinazolin-8-yl)cyclohexanesulfonamide]
< 100 nM	100 to 500 nM	CN[C@H]1CCN(c2nc(N)nc3c2CCc2cc(OCc4ccccc4)ccc2-3)C1 [Example 101, (S)-8-(benzyloxy)-4-(3-(methylamino)pyrrolidin-1-yl)-5,6-dihydrobenzo[h]quinazolin-2-amine]
< 100 nM	100 to 500 nM	CN(C)[C@@H]1CCN(c2nc(N)nc3c2CCc2cc(OCc4ccccc4)ccc2-3)C1 [Example 103, (R)-8-(benzyloxy)-4-(3-(dimethylamino)pyrrolidin-1-yl)-5,6-dihydrobenzo[h]quinazolin-2-amine]
< 100 nM	100 to 500 nM	CN(C)C1CCN(c2nc(N)nc3c2CCc2cc(OCc4ccccc4)ccc2-3)CC1 [Example 104, 8-(benzyloxy)-4-(4-(dimethylamino)piperidin-1-yl)-5,6-dihydrobenzo[h]quinazolin-2-amine]
100 to 500 nM	< 100 nM	CCS(=O)(=O)NCCCCN1CCN(c2nc(N)nc3c2CCc2cc(OCc4ccccc4)ccc2-3)CC1 [Example 105, N-(4-(4-(2-amino-8-(benzyloxy)-5,6-dihydrobenzo[h]quinazolin-4-yl)piperazin-1-yl)butyl)ethanesulfonamide bis(trifluoroacetate)]
100 to 500 nM	100 to 500 nM	CN1CCN(c2nc(N)nc3c2CCc2cc(OCc4ccccc4)ccc2-3)CC1CO (stereo not shown) [Example 106, (4-(2-amino-8-(benzyloxy)-5,6-dihydrobenzo[h]quinazolin-4-yl)-1-methylpiperazin-2-yl)methanol]
100 to 500 nM	< 100 nM	CCS(=O)(=O)CCCN1CCN(c2nc(N)nc3c2CCc2cc(OCc4ccccc4)ccc2-3)CC1 [Example 107, 8-(benzyloxy)-4-(4-(3-(ethylsulfonyl)propyl)piperazin-1-yl)-5,6-dihydrobenzo[h]quinazolin-2-amine]
< 100 nM	< 100 nM	CNC(=O)COCCOCCN1CCN(c2nc(N)nc3c2CCc2cc(OCc4ccccc4)ccc2-3)CC1 [Example 108, 2-(2-(2-(4-(2-amino-8-(benzyloxy)-5,6-dihydrobenzo[h]quinazolin-4-yl)piperazin-1-yl)ethoxy)ethoxy)-N-methylacetamide]
